Patent US8232407B2, “Nitrogenous heterocyclic compounds with insecticidal activity, and the preparation and use thereof” (East China University of Science and Technology, priority 2008, dated 2012)

Columns and labels:
Format in all cases: in vivo
[1] = system: Aphis craccivoral; test: Insecticidal activities to aphids, immersion method; settings: for Aphis craccivoral Mortality (%) 500 ppm: in vivo
In short: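 Wingless adult aphids feeding on bean sprouts were dipped 5 s in 500 ppm compound (DMF stock diluted in 0.2 mL/L aqueous Triton X-100), blotted and held at 23° C. Dead counted at 24 h, three replicates; mortality corrected against Triton-only controls.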

[2] = system: Nilaparvata lugens; test: Insecticidal activities to plant hopper, spraying method; settings: for Nilaparvata lugens Mortality (%) 500 ppm: in vivo
In short: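 Nilaparvata lugens, 10 insects per tumbler, sprayed with 2 ml compound in acetone at 0.79-500 ppm, three replicates, aqueous acetone control. Dead insects counted after 24 h; mortality corrected against control survival.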

[3] = system: Pseudaletia separate Walker; test: Insecticidal activities to armyworm, leaf dipping and feeding
In short: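 Maize leaves dipped 3 s in acetone-formulated compound at 500 down to 1.57 ppm, dried and fed to armyworms, 10 insects per treatment in triplicate, aqueous acetone as control. Mortality was counted after 24 hours and corrected against control survival.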

[4] = system: Plutella xylostella; test: Insecticidal activities to diamondback moth, feeding dipped leaves; settings: for Plutella xylostella Mortality (%) 500 ppm: in vivo
In short: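 Leaf-dip feeding assay: fresh cabbage leaves dipped 3 s in test solution, air-dried and fed to Plutella xylostella, 10 insects per treatment, three replicates, water control. Deaths counted after 24 h; mortality corrected against survival in the control group.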

SMILES	Aphis craccivoral Mortality (%) 500 ppm [1]	Nilaparvata lugens Mortality (%) 500 ppm [2]	Pseudaletia separate Walker Mortality (%) 500 ppm ([3]; in vivo)	Plutella xylostella Mortality (%) 500 ppm [4]	mortality at 500 ppm ([1]; Aphis, read-out: Aphis craccivoral Mortality (%) 500 ppm)	mortality at 500 ppm ([2]; Nilaparvata lugens, 24 h, read-out: Nilaparvata lugens Mortality (%) 500 ppm)	Pseudaletia separate Walker Mortality (%) 500 ppm ([3]; 500 ppm, leaf dipping and feeding, counted after 24 hours)	mortality at 500 ppm ([4]; Plutella xylostella, 24 h, read-out: Plutella xylostella Mortality (%) 500 ppm)
C[N+]1=C(C(=Cc2oc(Cl)cc2Cl)[N+](=O)[O-])N(Cc2ccc(Cl)nc2)CC1.[Cl-] [Compound 252]	100%	100%	100%	100%				
O=[N+]([O-])C(=Cc1cc(Br)cs1)C1=NCCN1Cc1cnc(Cl)s1 [Compound 89]	100%	100%	97%	100%				
CC(c1ccc(Cl)nc1)N1CCN=C1C(=Cc1ccc[nH]1)[N+](=O)[O-] (racemic) [Compound 131]	100%	100%	100%	63%				
CC(=C(C1=NCCN1C(C)c1ccc(Cl)nc1)[N+](=O)[O-])c1ccco1 (racemic) [Compound 133]	48%	50%	90%	68%				
CCc1ccc(C(C)=C(C2=NCCN2Cc2ccc(Cl)nc2)[N+](=O)[O-])o1 [Compound 115]	93%	100%	79%	96%				
O=[N+]([O-])C(=Cc1ccsc1)C1=NCCN1Cc1cnc(Cl)s1 [Compound 84]	100%	100%	100%	100%				
O=[N+]([O-])C(=Cc1ccc(Br)o1)C1=NCCCN1Cc1ccc(Cl)nc1 [Compound 50]	100%	100%	100%	100%				
O=[N+]([O-])C(=Cc1cc(Cl)c(Cl)o1)C1=NCCN1CC1CCOC1 (stereo not shown) [Compound 98]	76%	90%	68%	77%				
CC(=C(C1=NCCN1C(C)c1ccc(Cl)nc1)[N+](=O)[O-])c1ccc([N+](=O)[O-])o1 (racemic) [Compound 135]	56%	63%	45%	56%				
CC[N+]1=C(C(=Cc2ccc([N+](=O)[O-])o2)[N+](=O)[O-])N(Cc2ccc(Cl)nc2)CC1.[Cl-] [Compound 287]	100%	100%	100%	100%				
CCc1ccc(C=C(C2=NCCN2Cc2ccc(Cl)nc2)[N+](=O)[O-])s1 [Compound 29]	100%	100%	100%	100%				
N#CC(=Cc1oc(Cl)cc1Cl)C1=NCCN1Cc1ccc(Cl)nc1 [Compound 143]	75%	100%	86%	85%				
Cc1ccc(C=C(C2=[N+](C)CCN2Cc2ccc(Cl)nc2)[N+](=O)[O-])s1.[Cl-] [Compound 270]	100%	100%	100%	100%				
O=[N+]([O-])C(=Cc1ccco1)C1=NCCN1Cc1ccccc1 [Compound 103]	86%	100%	70%	25%				
O=[N+]([O-])C(=Cc1cc(Br)co1)C1=NCCN1Cc1cnc(Cl)s1 [Compound 74]	100%	100%	100%	100%				
CC(c1ccc(Cl)nc1)N1CCN=C1C(=Cc1ccsc1)[N+](=O)[O-] (racemic) [Compound 128]	100%	100%	100%	100%				
CC(c1ccc(Cl)nc1)N1CCN=C1C(=Cc1ccc([N+](=O)[O-])o1)[N+](=O)[O-] (racemic) [Compound 124]	100%	100%	100%	100%				
Cc1coc(C=C(C2=NCCN2Cc2ccc(Cl)nc2)[N+](=O)[O-])c1 [Compound 13]	100%	100%	100%	100%				
O=[N+]([O-])C(=Cc1ccccn1)C1=NCCN1Cc1ccc(Cl)nc1 [Compound 37]	34%	56%	57%	50%				
O=[N+]([O-])C(=Cc1cc(Br)c(Br)o1)C1=NCCCN1Cc1ccc(Cl)nc1 [Compound 55]	98%	100%	100%	100%				
N#CC(=Cc1ccc([N+](=O)[O-])o1)C1=NCCN1Cc1ccc(Cl)nc1 [Compound 142]	100%	100%	100%	100%				
C[N+]1=C(C(=Cc2ccc(CO)s2)[N+](=O)[O-])N(Cc2ccc(Cl)nc2)CC1.[Cl-] [Compound 273]	100%	100%	100%	100%				
CC[N+]1=C(C(=Cc2ccc([N+](=O)[O-])s2)[N+](=O)[O-])N(Cc2ccc(Cl)nc2)CC1.[Cl-] [Compound 293]	100%	100%	100%	100%				
O=[N+]([O-])/C(=C/c1ccc([N+](=O)[O-])o1)C1=NCCN1Cc1cnc(Cl)s1 [Compound 70]					100%	100%	98%	100%
C[N+]1=C(C(=Cc2ccsc2)[N+](=O)[O-])N(Cc2cnc(Cl)s2)CC1.[Cl-] [Compound 281]	100%	100%	100%	100%				
N#CC(=Cc1cccs1)C1=NCCN1Cc1ccc(Cl)nc1 [Compound 146]	100%	100%	100%	100%				
O=[N+]([O-])C(=Cc1cc(Cl)c(Cl)s1)C1=NCCN1Cc1ccc(Cl)nc1 [Compound 23]	100%	100%	100%	100%				
O=[N+]([O-])C(=Cc1cc(Cl)c(Cl)o1)C1=NCCN1Cc1cnc(Cl)s1 [Compound 75]	100%	100%	100%	100%				
